This is an account of results in patent US20230365592A1 (Agios Pharmaceuticals, Inc., priority 2022, published 2023).

Molecules are shown by their SMILES. A value given as a limit tells only on which side of the number the result lay.

This assay concerns the target T1, human PAH with the R408W mutation (Homo sapiens, UniProt P00439, R408W).
T1 construct: expressed in transfected cells
T1 sequence (P00439 1-452 R408W): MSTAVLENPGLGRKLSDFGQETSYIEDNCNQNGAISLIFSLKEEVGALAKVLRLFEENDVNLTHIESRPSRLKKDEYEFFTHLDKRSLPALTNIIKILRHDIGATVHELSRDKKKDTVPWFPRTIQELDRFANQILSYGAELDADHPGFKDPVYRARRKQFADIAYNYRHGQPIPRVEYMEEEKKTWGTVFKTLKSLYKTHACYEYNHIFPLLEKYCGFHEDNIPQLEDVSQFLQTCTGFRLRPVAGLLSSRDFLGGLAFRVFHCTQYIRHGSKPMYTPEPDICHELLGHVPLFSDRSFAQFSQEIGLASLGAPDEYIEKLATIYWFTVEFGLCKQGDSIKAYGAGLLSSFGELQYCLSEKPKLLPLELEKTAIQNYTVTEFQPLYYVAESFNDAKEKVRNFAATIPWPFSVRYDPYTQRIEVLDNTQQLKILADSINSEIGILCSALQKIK
Briefly: Cell Based Phenylalanine Flux Assay.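 Note: after compound treatment, cells received sepiapterin plus isotope-labelled Phenylalanine for 4 hours, then labelled Tyrosine in the medium was quantified, 10-point 2-fold dilution series run in duplicate.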 To be noted: A375 cells expressing human R408W PAH; 24 hrs compound incubation; 13C-Tyrosine by LC-MS; average where tested multiple times; read-out: AC50.

Protocol: Compounds were resuspended in DMSO, and 2-fold serial dilutions were performed to generate a 10-point dose curve. Compounds were added to plated cells in a total volume of 100 µl, and a final DMSO concentration of 0.5%. Each compound was tested in duplicate. Following compound addition, cells were placed in a 5% CO2, 37° C. tissue culture incubator for 24 hrs. After the incubation period, 20 µM sepiapterin and 800 µM 13C9,15N-Phenylalanine were added. After 4 hours, cell media was removed. An aliquot of 10 µl of cell media was combined with 200 µl of extraction buffer (80% acetonitrile/20% H2O) for each well. Determination of ^13C-Tyrosine concentration was assessed by liquid chromatography mass spectrometry.
Where a compound was tested multiple times, the average value of the tests is reported.

For orientation: AC50 means the concentration giving half of the maximal activity seen. With `Cc1cccn2nc([C@H]3c4nc[nH]c4CCN3C(=O)c3oc(-c4cncn4C)nc3C(F)F)cc12` [Example 890, (R)-(4-(difluoromethyl)-2-(1-methyl-1H-imidazol-5-yl)oxazol-5-yl)(4-(4-methylpyrazolo[1,5-a]pyridin-2-yl)-6,7-dihydro-1H-imidazo[4,5-c]pyridin-5(4H)-yl)methanone], the concentration at half-maximal activity (AC50) is over 5 µM.

Consider `Cc1cccn2nc([C@@H]3c4nc[nH]c4CCN3C(=O)c3oc(-c4cncn4C)nc3C(F)F)cc12` [Example 891, (S)-(4-(difluoromethyl)-2-(1-methyl-1H-imidazol-5-yl)oxazol-5-yl)(4-(4-methylpyrazolo[1,5-a]pyridin-2-yl)-6,7-dihydro-1H-imidazo[4,5-c]pyridin-5(4H)-yl)methanone], for which the AC50 is under 0.5 µM. With `Cc1cc(C(=O)N2CCc3[nH]cnc3[C@H]2c2cc3ccccn3n2)n(C)n1` [Example 892, (S)-(1,3-dimethyl-1H-pyrazol-5-yl)(4-(pyrazolo[1,5-a]pyridin-2-yl)-6,7-dihydro-1H-imidazo[4,5-c]pyridin-5(4H)-yl)methanone] the figure was under 0.5 µM; with `Cc1cccn2nc([C@H]3c4nc[nH]c4CCN3C(=O)c3nnc(-c4cccnc4)o3)cc12` [Example 895, (R)-(4-(4-methylpyrazolo[1,5-a]pyridin-2-yl)-6,7-dihydro-1H-imidazo[4,5-c]pyridin-5(4H)-yl)(5-(pyridin-3-yl)-1,3,4-oxadiazol-2-yl)methanone], over 5 µM.

Take `O=C(c1nnc(-c2cccnc2)o1)N1CCc2[nH]cnc2[C@H]1c1cc2c(F)cccn2n1` [Example 896, (S)-(4-(4-fluoropyrazolo[1,5-a]pyridin-2-yl)-6,7-dihydro-1H-imidazo[4,5-c]pyridin-5(4H)-yl)(5-(pyridin-3-yl)-1,3,4-oxadiazol-2-yl)methanone]: the AC50 is under 0.5 µM. Consider `O=C(c1nnc(-c2cccnc2)o1)N1CCc2[nH]cnc2[C@@H]1c1cc2c(F)cccn2n1` [Example 897, (R)-(4-(4-fluoropyrazolo[1,5-a]pyridin-2-yl)-6,7-dihydro-1H-imidazo[4,5-c]pyridin-5(4H)-yl)(5-(pyridin-3-yl)-1,3,4-oxadiazol-2-yl)methanone], for which the AC50 was over 5 µM.

`COc1cccn2nc([C@@H]3c4nc[nH]c4CCN3C(=O)c3ccnn3-c3ccccn3)cc12` [Example 898, (S)-(4-(4-methoxypyrazolo[1,5-a]pyridin-2-yl)-6,7-dihydro-1H-imidazo[4,5-c]pyridin-5(4H)-yl)(1-(pyridin-2-yl)-1H-pyrazol-5-yl)methanone]: the half-maximal activity concentration (AC50) is under 0.5 µM. With `Cc1cc(C(=O)N2CCc3[nH]cnc3[C@H]2c2cc3c(C)cccn3n2)n(C)n1` [Example 900, (S)-(1,3-dimethyl-1H-pyrazol-5-yl)(4-(4-methylpyrazolo[1,5-a]pyridin-2-yl)-6,7-dihydro-1H-imidazo[4,5-c]pyridin-5(4H)-yl)methanone] the figure was under 0.5 µM. In the case of `Cc1cc(C(=O)N2CCc3[nH]cnc3[C@@H]2c2cc3c(C)cccn3n2)n(C)n1` [Example 901, (R)-(1,3-dimethyl-1H-pyrazol-5-yl)(4-(4-methylpyrazolo[1,5-a]pyridin-2-yl)-6,7-dihydro-1H-imidazo[4,5-c]pyridin-5(4H)-yl)methanone], the AC50 is over 5 µM.

As for `Cn1cc(-c2nc(C(F)F)c(C(=O)N3CCc4[nH]cnc4[C@H]3c3cc4c(F)cccn4n3)o2)cn1` [Example 902, (S)-(4-(difluoromethyl)-2-(1-methyl-1H-pyrazol-4-yl)oxazol-5-yl)(4-(4-fluoropyrazolo[1,5-a]pyridin-2-yl)-6,7-dihydro-1H-imidazo[4,5-c]pyridin-5(4H)-yl)methanone], the half-maximal activity concentration (AC50) was under 0.5 µM.

With `Cn1cc(-c2nc(C(F)F)c(C(=O)N3CCc4[nH]cnc4[C@@H]3c3cc4c(F)cccn4n3)o2)cn1` [Example 903, (R)-(4-(difluoromethyl)-2-(1-methyl-1H-pyrazol-4-yl)oxazol-5-yl)(4-(4-fluoropyrazolo[1,5-a]pyridin-2-yl)-6,7-dihydro-1H-imidazo[4,5-c]pyridin-5(4H)-yl)methanone], the AC50 was 1 to 5 µM. With `O=C(c1nnc(-c2ncccc2F)o1)N1CCc2[nH]cnc2[C@@H]1c1cc2c(C(F)(F)F)cccn2n1` [Example 904, (R)-(5-(3-fluoropyridin-2-yl)-1,3,4-oxadiazol-2-yl)(4-(4-(trifluoromethyl)pyrazolo[1,5-a]pyridin-2-yl)-6,7-dihydro-1H-imidazo[4,5-c]pyridin-5(4H)-yl)methanone] the figure was over 5 µM; with `O=C(c1nnc(-c2ncccc2F)o1)N1CCc2[nH]cnc2[C@H]1c1cc2c(C(F)(F)F)cccn2n1` [Example 905, (S)-(5-(3-fluoropyridin-2-yl)-1,3,4-oxadiazol-2-yl)(4-(4-(trifluoromethyl)pyrazolo[1,5-a]pyridin-2-yl)-6,7-dihydro-1H-imidazo[4,5-c]pyridin-5(4H)-yl)methanone], under 0.5 µM. Take `O=C(c1nnc(-c2cnn(C(F)F)c2)o1)N1CCc2[nH]cnc2[C@H]1c1cc2c(C(F)(F)F)cccn2n1` [Example 906, (S)-(5-(1-(difluoromethyl)-1H-pyrazol-4-yl)-1,3,4-oxadiazol-2-yl)(4-(4-(trifluoromethyl)pyrazolo[1,5-a]pyridin-2-yl)-6,7-dihydro-1H-imidazo[4,5-c]pyridin-5(4H)-yl)methanone]: the AC50 was under 0.5 µM. Then `O=C(c1nnc(-c2cnn(C(F)F)c2)o1)N1CCc2[nH]cnc2[C@@H]1c1cc2c(C(F)(F)F)cccn2n1` [Example 907, (R)-(5-(1-(difluoromethyl)-1H-pyrazol-4-yl)-1,3,4-oxadiazol-2-yl)(4-(4-(trifluoromethyl)pyrazolo[1,5-a]pyridin-2-yl)-6,7-dihydro-1H-imidazo[4,5-c]pyridin-5(4H)-yl)methanone], with over 5 µM. With `O=C(c1nnc(-c2ccn(C(F)F)n2)o1)N1CCc2[nH]cnc2[C@@H]1c1cc2c(C(F)(F)F)cccn2n1` [Example 908, (R)-(5-(1-(difluoromethyl)-1H-pyrazol-3-yl)-1,3,4-oxadiazol-2-yl)(4-(4-(trifluoromethyl)pyrazolo[1,5-a]pyridin-2-yl)-6,7-dihydro-1H-imidazo[4,5-c]pyridin-5(4H)-yl)methanone] the figure was 1 to 5 µM; with `O=C(c1nnc(-c2ccn(C(F)F)n2)o1)N1CCc2[nH]cnc2[C@H]1c1cc2c(C(F)(F)F)cccn2n1` [Example 909, (S)-(5-(1-(difluoromethyl)-1H-pyrazol-3-yl)-1,3,4-oxadiazol-2-yl)(4-(4-(trifluoromethyl)pyrazolo[1,5-a]pyridin-2-yl)-6,7-dihydro-1H-imidazo[4,5-c]pyridin-5(4H)-yl)methanone], under 0.5 µM.

Turning to `COc1ccc(-c2nnc(C(=O)N3CCc4[nH]cnc4[C@H]3c3cc4cccc(C)n4n3)o2)nc1` [Example 910, (S)-(5-(5-methoxypyridin-2-yl)-1,3,4-oxadiazol-2-yl)(4-(7-methylpyrazolo[1,5-a]pyridin-2-yl)-6,7-dihydro-1H-imidazo[4,5-c]pyridin-5(4H)-yl)methanone], the AC50 lay in the range of 0.5 to 1 µM. With `COc1ccc(-c2nnc(C(=O)N3CCc4[nH]cnc4[C@@H]3c3cc4cccc(C)n4n3)o2)nc1` [Example 911, (R)-(5-(5-methoxypyridin-2-yl)-1,3,4-oxadiazol-2-yl)(4-(7-methylpyrazolo[1,5-a]pyridin-2-yl)-6,7-dihydro-1H-imidazo[4,5-c]pyridin-5(4H)-yl)methanone] the figure was over 5 µM; with `Cc1cccc2cc([C@H]3c4nc[nH]c4CCN3C(=O)c3nnc(-c4ncccc4F)o3)nn12` [Example 913, (R)-(5-(3-fluoropyridin-2-yl)-1,3,4-oxadiazol-2-yl)(4-(7-methylpyrazolo[1,5-a]pyridin-2-yl)-6,7-dihydro-1H-imidazo[4,5-c]pyridin-5(4H)-yl)methanone], over 5 µM; with `Cc1cccc2cc([C@@H]3c4nc[nH]c4CCN3C(=O)c3nnc(-c4cnn(C(F)F)c4)o3)nn12` [Example 914, (S)-(5-(1-(difluoromethyl)-1H-pyrazol-4-yl)-1,3,4-oxadiazol-2-yl)(4-(7-methylpyrazolo[1,5-a]pyridin-2-yl)-6,7-dihydro-1H-imidazo[4,5-c]pyridin-5(4H)-yl)methanone], 0.5 to 1 µM. `Cc1nc(C(=O)N2CCc3[nH]cnc3[C@H]2c2cc3c(C)cccn3n2)n(C)n1` [Example 916, (S)-(1,3-dimethyl-1H-1,2,4-triazol-5-yl)(4-(4-methylpyrazolo[1,5-a]pyridin-2-yl)-6,7-dihydro-1H-imidazo[4,5-c]pyridin-5(4H)-yl)methanone]: the AC50 is under 0.5 µM. With `COc1cccn2nc([C@@H]3c4nc[nH]c4CCN3C(=O)c3cc(C)nn3C)cc12` [Example 918, (S)-(1,3-dimethyl-1H-pyrazol-5-yl)(4-(4-methoxypyrazolo[1,5-a]pyridin-2-yl)-6,7-dihydro-1H-imidazo[4,5-c]pyridin-5(4H)-yl)methanone] the figure was under 0.5 µM; with `COc1cccn2nc([C@H]3c4nc[nH]c4CCN3C(=O)c3cc(C)nn3C)cc12` [Example 919, (R)-(1,3-dimethyl-1H-pyrazol-5-yl)(4-(4-methoxypyrazolo[1,5-a]pyridin-2-yl)-6,7-dihydro-1H-imidazo[4,5-c]pyridin-5(4H)-yl)methanone], over 5 µM.
